Results from patent US20260176289A1, “SMALL MOLECULE INHIBITORS OF KRAS PROTEINS” (Merck Sharp & Dohme LLC, priority 2022, published 2026).
Where two headings read alike, the source gives them in different places.

What was measured:
[1] = molecular target: KRAS-G12V (Homo sapiens, UniProt P01116, G12V); assay: SOS-catalyzed nucleotide exchange assay (Procedure A, TR-FRET), KRAS-G12V; type: biochemical; conditions: nucleotide exchange, read-out: KRAS G12V GNE IC50
Method in brief: (§1)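 Signal ratio (520/495 nm, excitation 340 nm) reports Bodipy-GDP retention on biotinylated RAS after SOS-catalyzed exchange with 3 mM GTP. SOS was 40 nM, except 160 nM for G12V. Room-temperature exchange lasted 60 min (90 min for G12V), following a 60 min compound preincubation.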

[2] = test system: PANC08.13 cells; assay: Cellular phospho-ERK assay, PANC08.13 cells (homozygous KRAS-G12D); type: cell-based; conditions: Homo sapiens, read-out: PANC-08.13 pERK IC50
Method in brief: (§2)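 p-ERK/total ERK ratio, measured by AlphaLISA SureFire Ultra multiplex in lysates, was fitted to a 4-parameter logistic model for IC50. Compound exposure was 2 h at 37° C, 5% CO2, 10-point 1:3 dilutions from 30 μM final, on cells plated the previous night.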

[3] = molecular target: KRAS-WT (Homo sapiens, UniProt P01116); assay: SOS-catalyzed nucleotide exchange assay (Procedure A, TR-FRET), KRAS-WT; type: biochemical; conditions: nucleotide exchange, read-out: KRAS WT GNE IC50
Sequence of KRAS-WT (P01116 with tags, fused parts or gaps isoform P01116-2): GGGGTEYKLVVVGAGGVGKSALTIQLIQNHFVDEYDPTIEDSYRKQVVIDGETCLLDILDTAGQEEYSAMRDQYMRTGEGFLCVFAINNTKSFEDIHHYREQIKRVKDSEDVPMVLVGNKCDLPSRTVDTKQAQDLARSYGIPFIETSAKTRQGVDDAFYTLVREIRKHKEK
Method in brief: as §1

[4] = test system: SW620 cells; assay: Cellular phospho-ERK assay, SW620 cells (homozygous KRAS-G12V); type: cell-based; conditions: Homo sapiens, read-out: SW620 pERK IC50
Method in brief: as §2

[5] = molecular target: KRAS-G13D (Homo sapiens, UniProt P01116, G13D); assay: SOS-catalyzed nucleotide exchange assay (Procedure A, TR-FRET), KRAS-G13D; type: biochemical; conditions: nucleotide exchange, Procedure A; read-out: KRAS G13D GNE IC50
Sequence of KRAS-G13D (P01116 with tags, fused parts or gaps isoform P01116-2 G13D): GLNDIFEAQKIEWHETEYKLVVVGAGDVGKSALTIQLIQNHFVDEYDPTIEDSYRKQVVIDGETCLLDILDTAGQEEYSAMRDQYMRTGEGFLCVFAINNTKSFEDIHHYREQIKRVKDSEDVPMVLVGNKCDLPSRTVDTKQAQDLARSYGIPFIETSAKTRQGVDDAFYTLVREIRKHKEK

[6] = molecular target: KRAS-G12D (Homo sapiens, UniProt P01116, G12D); assay: SOS-catalyzed nucleotide exchange assay (Procedure A, TR-FRET), KRAS-G12D; type: biochemical; conditions: nucleotide exchange, read-out: KRAS G12D GNE IC50
Sequence of KRAS-G12D (P01116 with tags, fused parts or gaps isoform P01116-2 G12D): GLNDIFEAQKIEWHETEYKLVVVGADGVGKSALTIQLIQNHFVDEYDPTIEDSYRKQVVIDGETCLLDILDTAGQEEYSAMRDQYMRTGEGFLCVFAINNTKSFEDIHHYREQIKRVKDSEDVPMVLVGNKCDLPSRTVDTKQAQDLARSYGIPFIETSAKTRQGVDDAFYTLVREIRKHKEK
Method in brief: as §1

[7] = test system: MKN-1 cells; assay: Cellular phospho-ERK assay, MKN-1 cells (amplified wild-type KRAS); type: cell-based; conditions: Homo sapiens, read-out: MKN1 pERK IC50
Method in brief: as §2

[8] = molecular target: KRAS-G12C (C51S/C80L/C118S) (Homo sapiens, UniProt P01116, C118S/C51S/C80L/G12C); assay: SOS-catalyzed nucleotide exchange assay (Procedure A, TR-FRET), KRAS-G12C; type: biochemical; conditions: nucleotide exchange, Procedure A; read-out: KRAS G12C GNE IC50
Sequence of KRAS-G12C (C51S/C80L/C118S) (P01116 with tags, fused parts or gaps isoform P01116-2 G12C/C51S/C80L/C118S): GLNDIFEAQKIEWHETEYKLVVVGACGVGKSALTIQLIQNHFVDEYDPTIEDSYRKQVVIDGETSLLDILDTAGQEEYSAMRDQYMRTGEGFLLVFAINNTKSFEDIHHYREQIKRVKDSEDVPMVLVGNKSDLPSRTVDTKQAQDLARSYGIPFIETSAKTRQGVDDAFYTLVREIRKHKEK
Method in brief: as §1

[9] = test system: AsPC-1 cells; assay: Cellular phospho-ERK assay, AsPC-1 cells (homozygous KRAS-G12D); type: cell-based; conditions: Homo sapiens, ASPC1, 2 h, read-out: AsPC1 pERK IC50
Method in brief: as §2

[10] = amplified wild-type KRAS, 2 hours

Sequence of KRAS-G12V (P01116 with tags, fused parts or gaps isoform P01116-2 G12V): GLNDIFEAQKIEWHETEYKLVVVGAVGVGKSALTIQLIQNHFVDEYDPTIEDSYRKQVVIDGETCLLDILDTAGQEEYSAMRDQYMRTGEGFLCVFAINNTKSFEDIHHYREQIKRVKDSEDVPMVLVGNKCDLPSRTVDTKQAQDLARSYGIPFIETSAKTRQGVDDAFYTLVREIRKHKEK

Question: With Cc1cc2[nH]ncc2c(-c2nccc3c4c(N5CCOC[C@@](C)(O)C5)nc(OC[C@@]56CCCN5C[C@H](F)C6)nc4n(C)c23)c1C(F)(F)F (single isomer, unassigned) [Ex-1] as the compound, how does the IC50 [1] read?
Answer: 55.6 nM

Question: What about the IC50 ([2]; PANC-08-13, KRAS-G12D, 2 hours) of the same compound?
Answer: 237 nM

Question: What about the IC50 [3] of the same compound?
Answer: 93.4 nM

Question: And the IC50 ([4]; SW-620, KRAS-G12V, 2 hours)?
Answer: 429 nM

Question: And the IC50 [5]?
Answer: 77.4 nM

Question: What about the IC50 [6] of the same compound?
Answer: 41.5 nM

Question: What about the IC50 [7, 10] of the same compound?
Answer: 222 nM

Question: And the IC50 [8]?
Answer: 19.8 nM

Question: And the IC50 ([9]; KRAS-G12D, 2 hours)?
Answer: 376 nM

Question: Cc1cc2[nH]ncc2c(-c2nccc3c2sc2nc(OC[C@@]45CCCN4C[C@H](F)C5)nc(N4CCOC[C@@](C)(O)C4)c23)c1C(F)F [Ex-129, (6S)-4-(8-(5-(di-fluoromethyl)-6-methyl-1H-indazol-4-yl)-2-(((2R,7aS)-2-fluorotetrahydro-1H-pyrrolizin-7a(5H)-yl)methoxy)-pyrido[4′,3′:4,5]thieno[2,3-d]pyr-imidin-4-yl)-6-meth-yl-1,4-oxazepan-6-ol] was tested. Which IC50 [1] did it give?
Answer: 85 nM

Question: What about the IC50 ([2]; PANC-08-13, KRAS-G12D, 2 hours) of the same compound?
Answer: 144 nM

Question: And the IC50 [3]?
Answer: 165 nM

Question: And the IC50 ([4]; SW-620, KRAS-G12V, 2 hours)?
Answer: 211 nM

Question: And the IC50 [5]?
Answer: 79 nM

Question: And the IC50 [6]?
Answer: 56.2 nM

Question: And the IC50 [7, 10]?
Answer: 241 nM

Question: What about the IC50 [8] of the same compound?
Answer: 50 nM

Question: And the IC50 ([9]; KRAS-G12D, 2 hours)?
Answer: 469 nM

Question: How did the IC50 [1] turn out when C=Cc1c(C)cc2[nH]ncc2c1-c1nccc2c1sc1nc(OC[C@@]34CCCN3C[C@H](F)C4)nc(N3CCOC[C@@](C)(O)C3)c12 [Ex-35, (6S)-4-(2-(((2R,7aS)-2-fluorotetrahydro-1H-pyrrolizin-7a(5H)-yl)methoxy)-8-(6-methyl-5-vinyl-1H-indazol-4-yl)pyrido[4′,3′:4,5]thieno[2,3-d]pyrimidin-4-yl)-6-methyl-1,4-oxazepan-6-ol] was run?
Answer: 73.7 nM

Question: What about the IC50 ([2]; PANC-08-13, KRAS-G12D, 2 hours) of the same compound?
Answer: 73.5 nM

Question: And the IC50 [3]?
Answer: 66.7 nM

Question: What about the IC50 ([4]; SW-620, KRAS-G12V, 2 hours) of the same compound?
Answer: 172 nM

Question: And the IC50 [5]?
Answer: 47.1 nM

Question: What about the IC50 [6] of the same compound?
Answer: 31.9 nM

Question: And the IC50 [7, 10]?
Answer: 121 nM

Question: What about the IC50 [8] of the same compound?
Answer: 29.2 nM

Question: And the IC50 ([9]; KRAS-G12D, 2 hours)?
Answer: 264 nM

Question: Which results are given for C[C@@]1(O)COCCN(c2nc(OC[C@@]34CCCN3C[C@H](F)C4)nc3sc4c(-c5c(C(F)(F)F)c(Cl)cc6[nH]ncc56)nccc4c23)C1 [Ex-40, (6S)-4-(8-(6-chloro-5-(trifluoromethyl)-1H-indazol-4-yl)-2-(((2R,7aS)-2-fluorotetrahydro-1H-pyrrolizin-7a(5H)-yl)methoxy)pyrido[4′,3′:4,5]thi-eno[2,3-d]pyrimidin-4-yl)-6-methyl-1,4-oxazepan-6-ol]?
Answer: IC50 [1]: 83.4 nM; IC50 ([2]; PANC-08-13, KRAS-G12D, 2 hours): 114 nM; IC50 [3]: 138 nM; IC50 ([4]; SW-620, KRAS-G12V, 2 hours): 124 nM; IC50 [5]: 52.4 nM; IC50 [6]: 61.5 nM; IC50 [7, 10]: 159 nM; IC50 [8]: 34.4 nM; IC50 ([9]; KRAS-G12D, 2 hours): 294 nM

Question: With CCOc1c(C)cc2[nH]ncc2c1-c1nccc2c1sc1nc(OC[C@@]34CCCN3C[C@H](F)C4)nc(N3CCOC[C@@](C)(O)C3)c12 [Ex-38, (6S)-4-(8-(5-ethoxy-6-methyl-1H-indazol-4-yl)-2-(((2R,7aS)-2-fluorotetrahydro-1H-pyrrolizin-7a(5H)-yl)methoxy)pyrido[4′,3′:4,5]thieno[2,3-d]pyrimidin-4-yl)-6-methyl-1,4-oxazepan-6-ol] as the compound, how does the IC50 [1] read?
Answer: 186 nM

Question: And the IC50 ([2]; PANC-08-13, KRAS-G12D, 2 hours)?
Answer: 122 nM

Question: And the IC50 [3]?
Answer: 239 nM

Question: And the IC50 ([4]; SW-620, KRAS-G12V, 2 hours)?
Answer: 277 nM

Question: And the IC50 [5]?
Answer: 123 nM

Question: And the IC50 [6]?
Answer: 96.6 nM

Question: What about the IC50 [7, 10] of the same compound?
Answer: 197 nM

Question: And the IC50 [8]?
Answer: 36 nM

Question: What about the IC50 ([9]; KRAS-G12D, 2 hours) of the same compound?
Answer: 395 nM

Question: Which results are given for C=C(C)c1c(C)cc2[nH]ncc2c1-c1nccc2c1sc1nc(OC[C@@]34CCCN3C[C@H](F)C4)nc(N3CCOC[C@@](C)(O)C3)c12 [Ex-136, (6S)-4-(2-(((2R, 7aS)-2-fluorotetra-hydro-1H-pyrrol-izin-7a(5H)-yl)meth-oxy)-8-(6-methyl-5-(prop-1-en-2-yl)-1H-indazol-4-yl)pyr-ido[4′,3′:4,5]thieno [2,3-d]pyrimidin-4-yl)-6-methyl-1,4-oxazepan-6-ol]?
Answer: IC50 [1]: 40.6 nM; IC50 ([2]; PANC-08-13, 2 hours compound incubation): 58.4 nM; IC50 [3]: 60 nM; IC50 ([4]; SW-620, 2 hours compound incubation): 253 nM; IC50 [5]: 24.8 nM; IC50 [6]: 21.6 nM; IC50 ([7]; 2 hours compound incubation): 118 nM; IC50 [8]: 39 nM; IC50 ([9]; 2 hours compound incubation): 131 nM

Question: What does the source list for Cc1cc2[nH]ncc2c(-c2nccc3c2sc2nc(OC[C@@]45CCCN4C[C@H](F)C5)nc(N4CCOC[C@@](C)(O)C4)c23)c1OC(F)(F)Cl [Ex-39, (6S)-4-(8-(5-(chlorodifluoromethoxy)-6-methy1-1H-indazol-4-yl)-2-(((2R,7aS)-2-fluorotetrahydro-1H-pyrrolizin-7a(5H)-yl)methoxy)pyri-do[4′,3′:4,5]thi-eno[2,3-d]pyrimidin-4-yl)-6-methyl-1,4-oxazepan-6-ol]?
Answer: IC50 [1]: 30.9 nM; IC50 ([2]; PANC-08-13, KRAS-G12D, 2 hours): 35.7 nM; IC50 [3]: 30 nM; IC50 ([4]; SW-620, KRAS-G12V, 2 hours): 74.3 nM; IC50 [5]: 20.4 nM; IC50 [6]: 9.23 nM; IC50 [7, 10]: 44.2 nM; IC50 [8]: 9.42 nM; IC50 ([9]; KRAS-G12D, 2 hours): 118 nM

Question: Which results are given for Cc1cc2[nH]ncc2c(-c2nccc3c4c(N5CCOC[C@@](C)(O)C5)nc(OC[C@@]56CCCN5C[C@H](F)C6)nc4n(C)c23)c1C(F)F (single isomer, unassigned) [Ex-10]?
Answer: IC50 [1]: 54 nM; IC50 ([2]; PANC-08-13, KRAS-G12D, 2 hours): 191 nM; IC50 [3]: 97.7 nM; IC50 ([4]; SW-620, KRAS-G12V, 2 hours): 337 nM; IC50 [5]: 93.8 nM; IC50 [6]: 40.3 nM; IC50 [7, 10]: 200 nM; IC50 [8]: 30.1 nM; IC50 ([9]; KRAS-G12D, 2 hours): 439 nM

Question: Which results are given for Cc1cc2[nH]ncc2c(-c2nccc3c4c(N5CCOC[C@@](C)(O)C5)nc(OC[C@]5(CN(C)C)CC5(F)F)nc4n(C)c23)c1C(F)F (single isomer, unassigned) [Ex-19]?
Answer: IC50 [1]: 67.2 nM; IC50 ([2]; PANC-08-13, KRAS-G12D, 2 hours): 68.2 nM; IC50 [3]: 85.5 nM; IC50 ([4]; SW-620, KRAS-G12V, 2 hours): 214 nM; IC50 [5]: 68.3 nM; IC50 [6]: 26.5 nM; IC50 [7, 10]: 118 nM; IC50 [8]: 37.4 nM; IC50 ([9]; KRAS-G12D, 2 hours): 58.5 nM
